Patent EP1534672B1, “RETINOL DERIVATIVES, THEIR USE IN THE TREATMENT OF CANCER AND FOR POTENTIATING THE EFFICACY OF OTHER CYTOTOXIC AGENTS” (priority 2002, dated 2004)
Where two headings read alike, the source gives them in different places.

How the values were obtained:
[1] = test system: Human Breast Adenocarcinoma Cell Line MDA-MB-231; assay: Drug cytotoxicity testing (viable cell count, trypan blue exclusion, cell growth inhibition); format: cell-based; details: for inhibition at 0.1 µM / inhibition at 0.01 µM / inhibition at 0.001 µM: Homo sapiens; for cell growth inhibition in (A) compared to compound in B / cell growth inhibition reached on increase of the concentration, in (B): sodium salt, range 10^-9 to 10^-7 M; for cell growth inhibition reached on increase of the concentration, in (B): dilution in normal saline (B)
Description: MDA-MB-231 cells were propagated in MEM culture medium with 2 mM L-glutamine, 10% heat-inactivated fetal bovine serum (FBS) and antibiotics. DU 145 cells were cultured in MEM culture medium containing 2 mM L-glutamine, 1 mM sodium pyruvate, 10% FBS and antibiotics. SKOV-3 cells were cultured in McCoy's 5A culture medium, supplemented with 1,5 mM L-glutamine, 10% FBS and antibiotics. A549 cells were cultured in Ham's F-12 culture medium with 1 mM L-glutamine, 10% FBS and antibiotics. All media and supplements were purchased from Sigma-Aldrich (St.Louis, MO, USA). Cell propagation of all lines was carried out in Falcon™ 25 cm^2 cultivation flasks (Becton Dickinson Labware).
Drug cytotoxicity testing was carried out with using Falcon™ 96-well cultivation plates for adherent cells (Becton Dickinson Labware). These plates were seeded by cells either at 12 × 10^3 MDA-MB-231 cells/well, or at 12 × 10^3 DU 145 cells/well, or at 14 × 10^3 SKOV-3 cells/well, or at 10 × 10^3 A549 cells/well in a volume of 200 µL/well.
The cell cultures in cultivation plates were allowed to adhere for 24 hour of incubation. On day 1 after cell seeding, 2 µL solutions of the drugs to be tested in medium with 5% FBS was added to the cultures. In the control cultures, 2 µL of medium with 5% FBS was added as solvent control. The cells were incubated for 2 consecutive days. At the end of the incubation period adherent cells were detached by trypsinization and the number of viable cells was counted using trypan blue exclusion test and a hemocytometer. All data were derived from an average of three determinations each in six replicates. The results were expressed as mean cell number ± SE and the differences between control and test series evaluated by means of Student's t-test. The drug cytotoxicity was evaluated based on the extent of cell growth inhibition. The cell growth inhibition of the tested drugs was calculated as follows: Cell growth inhibition,% = (Control-TestSeries)/(Control) × 100 [formula]
In the case of comparative evaluation of cytotoxicity of the inventive compounds themselves and the formulation related to consecutive dilutions of their initial solutions before adding to the cultures, 2 µL solutions of the drugs to be tested in medium with 5% FBS, in normal saline and in saline with 2,3 mM CaCl2 were added to the cultures. In control cultures, 2 µL of medium with 5% FBS, normal saline and saline with 2,3 mM CaCl2 were added as solvent controls (negative controls). […] Therefore an average of negative controls was calculated. […] Therefore an average of positive controls was calculated (for each antibiotic).

[2] = rat, in vivo, ip; for mortality: 100 mg/kg
Description: A single dose i.p. toxicity study in rats was carried out. […] The minimal lethal dose is thus above 100 mg/kg body weight for these compounds.

[3] = MDA-MB-231, 48 h, compound alone, final concentration 10^-7 mol/L, working solutions in MEM with 5% FBS, two days, read-out: cell growth inhibition
[4] = MDA-MB-231, 48 h, compound alone, final concentration 10^-8 mol/L, working solutions in MEM with 5% FBS, two days, read-out: cell growth inhibition
[5] = MDA-MB-231, 48 h, compound alone, final concentration 10^-9 mol/L, working solutions in MEM with 5% FBS, two days, read-out: cell growth inhibition
[6] = MDA-MB-231, compound alone 10^-7 mol/L, in A (saline with […] CaCl2), read-out: cell growth inhibition
[7] = MDA-MB-231, compound alone 10^-7 mol/L, in B (normal saline), read-out: cell growth inhibition
[8] = MDA-MB-231, compound alone 10^-7 mol/L, read-out: Cell growth inhibition in A compared to that in B was increased by
[9] = MDA-MB-231, compound alone 10^-8 mol/L, in A (saline with […] CaCl2), read-out: cell growth inhibition
[10] = MDA-MB-231, compound alone 10^-8 mol/L, in B (normal saline), read-out: cell growth inhibition
[11] = MDA-MB-231, compound alone 10^-8 mol/L, read-out: Cell growth inhibition in A compared to that in B was increased by
[12] = MDA-MB-231, compound alone 10^-9 mol/L, in A (saline with […] CaCl2), read-out: cell growth inhibition
[13] = MDA-MB-231, compound alone 10^-9 mol/L, in B (normal saline), read-out: cell growth inhibition
[14] = MDA-MB-231, compound alone 10^-9 mol/L, read-out: Cell growth inhibition in A compared to that in B was increased by
[15] = compound alone 10^-7 mol/L, in B (normal saline)
[16] = compound alone 10^-8 mol/L, in B (normal saline)
[17] = compound alone 10^-9 mol/L, in B (normal saline)
[18] = compound alone, final concentration 10^-7 mol/L, working solutions in MEM with 5% FBS, two days
[19] = compound alone, final concentration 10^-8 mol/L, working solutions in MEM with 5% FBS, two days
[20] = compound alone, final concentration 10^-9 mol/L, working solutions in MEM with 5% FBS, two days

| Compound | inhibition at 0.1 µM [1, 3] [%] | inhibition at 0.01 µM [1, 4] [%] | inhibition at 0.001 µM [1, 5] [%] | inhibition at 0.1 µM [1, 6] [%] | inhibition at 0.1 µM [1, 7] [%] | inhibition at 0.1 µM [1, 8] [%] | inhibition at 0.01 µM [1, 9] [%] | inhibition at 0.01 µM [1, 10] [%] | inhibition at 0.01 µM [1, 11] [%] | inhibition at 0.001 µM [1, 12] [%] | inhibition at 0.001 µM [1, 13] [%] | inhibition at 0.001 µM [1, 14] [%] | number of viable cells [1, 15] | number of viable cells [1, 16] | number of viable cells [1, 17] | number of viable cells [1, 18] | number of viable cells [1, 19] | number of viable cells [1, 20] | minimal lethal dose [2] | mortality [2] | other results |
| --- | --- | --- | --- | --- | --- | --- | --- | --- | --- | --- | --- | --- | --- | --- | --- | --- | --- | --- | --- | --- | --- |
| CC1=C(/C=C/C(C)=C/C=C/C(C)=C/C(=O)N[C@@H](CS(=O)(=O)O)C(=O)N(C)C)C(C)(C)CCC1 [compound I-1h, N-(all-trans-retinoyl)-L-cysteic acid dimethylamide] | 46.4 | 39.6 | 32 | 41.8 | 26 | 21.3 | 34.2 | 17.4 | 20.4 | 26.7 | 7 | 21.1 | 41.3 ± 0.99 × 10^3 | 46.1 ± 2.65 × 10^3 | 51.9 ± 3.46 × 10^3 | 30.3 ± 1.55 × 10^3 | 34.1 ± 1.89 × 10^3 | 38.4 ± 2.11 × 10^3 | above 100 mg/kg body weight | did not produce mortality | cell growth inhibition in (A) compared to compound in B [1]: ~21% |
| CC1=C(/C=C/C(C)=C/C=C/C(C)=C\C(=O)N[C@@H](CS(=O)(=O)O)C(N)=O)C(C)(C)CCC1 [compound II-1f, N-(13-cis-retinoyl)-L-cysteic acid amide] | 53.2 | 49.8 | 45.1 |  | 45.8 | 15.4 | 47.4 | 37.3 | 16.1 | 40.1 | 27.2 | 17.7 | 31.1 ± 0.96 × 10^3 | 36.0 ± 1.28 × 10^3 | 41.8 ± 1.46 × 10^3 | 26.6 ± 1.83 × 10^3 | 28.5 ± 2.13 × 10^3 | 31.2 ± 2.42 × 10^3 | above 100 mg/kg body weight | did not produce mortality | cell growth inhibition in (A) compared to compound in B [1]: ~15%; cell growth inhibition reached on increase of the concentration, in (B) [1]: ~46% |
| COC(=O)[C@H](CS(=O)(=O)O)NC(=O)/C=C(C)/C=C/C=C(C)/C=C/C1=C(C)CCCC1(C)C [compound I-1a, N-(all-trans-retinoyl)-L-cysteic acid methyl ester] | 47.9 | 45.6 | 40 |  |  |  |  |  |  |  |  |  |  |  |  | 29.8 ± 2.44 × 10^3 | 31.1 ± 1.90 × 10^3 | 34.3 ± 2.27 × 10^3 | above 100 mg/kg body weight | did not produce mortality |  |
| CC1=C(/C=C/C(C)=C/C=C/C(C)=C/C(=O)N[C@@H](CCS(=O)(=O)O)C(N)=O)C(C)(C)CCC1 [compound I-3f, N-(all-trans-retinoyl)-L-homocysteic acid amide] | 55.2 | 48.7 | 41.4 | 53.6 | 40.8 | 21.6 | 46.8 | 32.1 | 21.5 | 39 | 21.8 | 21.9 | 32.8 ± 0.99 × 10^3 | 37.6 ± 1.52 × 10^3 | 43.3 ± 2.88 × 10^3 | 25.3 ± 0.76 × 10^3 | 29.0 ± 1.32 × 10^3 | 33.1 ± 1.90 × 10^3 | above 100 mg/kg body weight | did not produce mortality | cell growth inhibition in (A) compared to compound in B [1]: ~22%; cell growth inhibition reached on increase of the concentration, in (B) [1]: ~41% |
| CC1=C(/C=C/C(C)=C/C=C/C(C)=C/C(=O)N[C@@H](CS(=O)(=O)O)C(=O)O)C(C)(C)CCC1 [compound I-1, N-(all-trans-Retinoyl)-L-cysteic acid] |  |  |  | 41.5 | 31.3 | 14.8 | 40.2 | 29.7 | 15 | 36.9 | 24.8 | 16.1 | 39.1 ± 1.41 × 10^3 | 40.0 ± 1.35 × 10^3 | 42.8 ± 1.56 × 10^3 |  |  |  | above 100 mg/kg body weight |  | cell growth inhibition reached on increase of the concentration, in (B) [1]: ~31% |
| CCOC(=O)[C@H](CCS(=O)(=O)O)NC(=O)\C=C(C)/C=C/C=C(C)/C=C/C1=C(C)CCCC1(C)C [compound II-3b, N-(13-cis-retinoyl)-L-homocysteic acid ethyl ester] | 62.1 | 55.4 | 47.8 | 60.5 | 44.4 | 28.9 | 53.6 | 35.7 | 27.8 | 46 | 25.3 | 27.8 | 30.8 ± 1.60 × 10^3 | 35.6 ± 1.97 × 10^3 | 41.4 ± 2.15 × 10^3 | 21.4 ± 0.88 × 10^3 | 25.2 ± 1.27 × 10^3 | 29.5 ± 1.21 × 10^3 | above 100 mg/kg body weight | did not produce mortality | cell growth inhibition in (A) compared to compound in B [1]: ~29%; cell growth inhibition reached on increase of the concentration, in (B) [1]: ~44% |
